The results in this text go back to US4526967A, “Benzoquinolizines and use as α2 -adrenoceptor antagonistics” (John Wyeth & Brother Limited, priority 1983, dated 1985).

The target in one experiment is T1, α2 -adrenoceptor (Rattus norvegicus, UniProt P22909).
T1 construct: from tissue; host or cells: rat vas deferens (desheathed, field stimulated)
T1 sequence (P22909 1-465): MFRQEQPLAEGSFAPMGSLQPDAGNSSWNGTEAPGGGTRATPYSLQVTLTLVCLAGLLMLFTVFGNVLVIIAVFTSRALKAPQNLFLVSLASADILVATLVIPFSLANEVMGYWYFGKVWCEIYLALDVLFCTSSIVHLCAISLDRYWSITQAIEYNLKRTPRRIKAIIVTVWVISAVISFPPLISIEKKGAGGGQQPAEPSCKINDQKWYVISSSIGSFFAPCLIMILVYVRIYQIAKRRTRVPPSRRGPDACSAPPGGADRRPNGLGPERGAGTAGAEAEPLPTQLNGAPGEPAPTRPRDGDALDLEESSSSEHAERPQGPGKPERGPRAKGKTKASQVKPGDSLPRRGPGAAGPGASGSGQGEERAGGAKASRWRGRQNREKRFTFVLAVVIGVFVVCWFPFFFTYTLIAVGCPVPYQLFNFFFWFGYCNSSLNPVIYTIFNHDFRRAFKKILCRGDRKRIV
As to the kind of experiment: α2-adrenoceptor antagonistic activity on the rat field stimulated vas deferens preparation (antagonism of clonidine). The settings on record: for α2 /α1 selectivity: antilog of (α2 pA2 -α1 pA2); for Kb: rat field stimulated vas deferens, agonist clonidine, Schild plot (Arunlakshana & Schild), read-out: pA2 for α2 -adrenoceptor antagonistic activity (converted). On the procedure:
The compounds of the invention are tested for α2 -adrenoceptor antagonistic activity on the rat field stimulated vas deferens preparation using a modification of the metod of Drew, Eur. J. Pharmac., 1977, 42, 123-130. The procedure is described below.
Desheathed vasa deferentia from sexually mature rats were suspended in a 6 ml organ bath in Krebs solution at 37° and bubbled with 5% CO2 in oxygen. Platinum ring electrodes were positioned above and below the tissue for field stimulation, the stimulus parameters being 0.1 Hz 1 ms pulse width at supramaximal voltage. Twitch responses were recorded isotonically with a 0.5 g loading. Clonidine hydrochloride was used as the α-adrenoceptor agonist and cumulative concentration-response curves were constructed for the inhibition of twitch obtained with clonidine in the range 0.125 to 4 ng ml^-1. After washing out clonidine, the twitch response quickly recovered and an antagonist was then introduced into the Krebs reservoir. Clonidine concentration-response curves were repeated 90 min after introduction of the antagonist. The concentration of clonidine producing 50% inhibition of twitch before and after introduction of antagonist were obtained and the dose-ratio for clonidine was calculated. Various concentrations of the antagonists were used.
Chemother., 1959, 14, 48-58 and the values of pA2 and slope were calculated.

The target of another experiment is T2, α1 -adrenoceptors (Rattus norvegicus, UniProt P43140).
T2 construct: isolated anococcygeus muscle of the rat; from tissue; host or cells: rat anococcygeus muscle (male, 250-360 g)
T2 sequence (P43140 1-466): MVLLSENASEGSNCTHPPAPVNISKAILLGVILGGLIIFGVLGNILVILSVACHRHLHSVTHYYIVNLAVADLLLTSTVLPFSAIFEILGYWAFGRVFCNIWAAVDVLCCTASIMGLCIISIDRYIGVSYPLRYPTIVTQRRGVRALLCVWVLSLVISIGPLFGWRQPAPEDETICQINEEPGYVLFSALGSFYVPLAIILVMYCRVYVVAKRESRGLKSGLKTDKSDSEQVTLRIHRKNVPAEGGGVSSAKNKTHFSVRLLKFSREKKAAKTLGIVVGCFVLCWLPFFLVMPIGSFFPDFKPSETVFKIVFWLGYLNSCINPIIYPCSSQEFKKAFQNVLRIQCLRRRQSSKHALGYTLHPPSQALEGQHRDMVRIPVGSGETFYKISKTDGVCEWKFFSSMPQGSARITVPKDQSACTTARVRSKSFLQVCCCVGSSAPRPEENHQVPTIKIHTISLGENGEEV
As to the kind of experiment: α1 antagonistic activity on the isolated anococcygeus muscle of the rat (antagonism of phenylephrine or methoxamine). As to conditions: agonist phenylephrine or methoxamine, Arunlakshana & Schild, read-out: pA2 values for α1 antagonistic activity (converted). From the text:
The compounds of the invention generally antagonise the α2 -adrenoceptors to a much greater extent than the α1 -adrenoceptors. The α1 antagonistic activity can be evaluated by a number of different methods. One method involves assessing the activity on the isolated anococcygeus muscle of the rat. The method is based on that of Gillespie, Br.J.Pharmac., 1972, 45, 404-416. In the procedure male rats (250-360 g) are killed by a blow on the head and bled. The two anococcygeus muscles are removed from their position in the midline of the pelvic cavity, where they arise from the upper coccygeal vertebrae. The muscles are suspended in 5 ml organ baths in Krebs solution containing […] ascorbic acid, to prevent drug oxidation. The tissues are gassed with a 95% oxygen, 5% CO2 mixture and maintained at 37°. Longitudinal muscle contractions are recorded using isotonic transducers. Cumulative dose response curves are then obtained to phenylephrine or in some cases methoxamine, both agents being […] alpha adrenoceptor agonists. The concentration range of phenylephrine or methoxamine used is 0.02 to 0.8 μg.ml^-1. The agonist is then washed from the bath and the test drug added to the bathing medium at a concentration of 10^-6 M. After 30 min equilibration with the test drug a further agonist dose response curve is obtained. The washing, equilibration and agonists dosing procedures are then repeated using 10^-5 M and 10^-4 M solutions of the test drug. Estimates of the pA2 value for the test drug as an antagonist of phenylephrine or methoxamine were made from the agonist dose-ratios using the method of Arunlakshana & Schild, Br. J.Pharmac.Chemother., 1959, 14, 48-58.

With `CS(=O)(=O)NCCN([C@H]1CCN2CCc3ccccc3[C@H]2C1)S(=O)(=O)c1ccccc1` (relative stereo) [Example 13, N-((2β,11bα)-1,3,4,6,7,11b-Hexahydro-2H-benzo[a]quinolizin-2-yl)-N-(2-methanesulphonamidoethyl)benzenesulphonamide], on α2 -adrenoceptor, the “α2 /α1 selectivity” value is listed as 83 and the Kb was 7.59 nM. In addition, at α1 -adrenoceptors, the Kb was 631 nM.
For `CS(=O)(=O)NCCN([C@H]1CCN2CCc3ccccc3[C@H]2C1)S(C)(=O)=O` (relative stereo) [Example 2, N-[(2β,11bα)-1,3,4,6,7,11b-Hexahydro-2H-benzo[a]quinolizin-2-yl]-N-(2-methanesulphonamidoethyl)methanesulphonamide] the same measures were 407, 11.7 nM and 4790 nM.
With `CCCS(=O)(=O)N(CCNS(C)(=O)=O)[C@H]1CCN2CCc3ccccc3[C@H]2C1` (relative stereo) [Example 12, N-((2β,11bα)-1,3,4,6,7,11b-Hexahydro-2H-benzo[a]quinolizine-2-yl)-N-(2-methanesulphonamidoethyl)-n-propanesulphonamide], on α2 -adrenoceptor, the “α2 /α1 selectivity” value turned out to be 309 and the Kb is 5.13 nM. Moreover, at α1 -adrenoceptors, the Kb was 1580 nM.
